Article PMC3435281 (PLoS ONE, 2012)

Columns and labels:
naïve CD4^+ T cells = assay: Naïve CD4+ T cells with TGF-β, flow cytometry of FoxP3 and CD39; format: cell-based, mouse; settings: TGF-β 2 ng/ml with SU5416 250 nM, day 3
Excerpt: An important role for the AHR in the immune system, and specifically T-cell differentiation, has been recognized and continues to be characterized in the literature, [7]. Some ligands of the AHR have the ability to enhance Treg differentiation from naïve T-cells (TCDD, kynurenine), while others direct differentiation towards Th17 effector cells (FICZ). […] IDO has long been known to play a role in Treg generation, and may be central to the mechanism of Dendritic Cell (DC)-directed Treg generation. We as well as others have previously shown that IDO mRNA can be induced by ligands of the AHR, and that the mechanisms of IDO-directed Treg generation may depend on the AHR [25]. […] As described in the Methods, naïve T-cells were sorted using magnetic bead separation, and placed in culture for 5 days with allogeneic pDCs separated from BALB/C mice. […]
A. Spleens were harvested from mice and processed in the standard fashion. […] Same assay as A, but mRNA for CYP1B1 and IDO were measured. […] Same assay as in C, but IDO mRNA was assessed. * - p≤0.05. * - p≤0.01. […]
Naive CD4^+ T cells were isolated using the CD4^+ CD62L Isolation Kit (Miltenyi Biotec, Auburn, CA) and an autoMACS. […] For quantitative PCR (qPCR) analysis, 2–5 × 10^5 cells were cultured in each well of a 96-well round-bottom plate coated with 0.5 µg/ml anti-CD3 and anti-CD28 overnight and then washed with PBS twice before seeding the cells. […]

[1] = test system: CYP1A1 (induction through AHR^d); assay: CYP1A1 qPCR in AHR^d splenocytes; settings: AHR^d congenic on a C57BL/6J background, mouse
Experimental: As the above in vitro experiments were performed in cell lines, we next utilized AHR^b (C57BL/6J) and AHR^d congenic mice (on a C57BL/6J background). […] Normalized data was chosen to allow comparison of CYP1A1 upregulation to its maximum in AHR^b versus AHR^d mice.
Figure 4 Splenocytes from wild-type and AHR^d mice analyzed by qPCR for CYP1A1. […] After 4 hours they were analyzed by qPCR for CYP1A1 analysis. The curves are normalized from 0 to 100% response. […] Cos-1 cells were transfected with an AHR containing the same point mutation (valine for alanine) thought to be responsible for the low affinity of the AHR^d isoform compared to AHR^b, and compared to the wild-type AHR response. These cells also harbor a luciferase gene next to the DRE. C. Cos-1 cells were exposed to TCDD. […]
Spleen was harvested from mice at the time of euthanasia and single cell suspensions were made. […] The relative quantitation PCR for IDO1 (Mm00492586-m1) and GAPDH (4352339-E0806018) were performed in the Applied Biosystems 7900HT Fast Real-Time PCR System (Applied Biosystems), and TaqMan Universal PCR Master Mix (Applied Biosystems) was used as a reaction reagent. The relative quantitation PCR for Foxp3, CYP1A1, CYP1B1, and GAPDH were processed by the Bio-Rad iCycler (Bio-Rad) and iQ SYBR Green Supermix ([…]) was used as the reaction reagent.

Compound | CD39 in the FoxP3^+ T cells (naïve CD4^+ T cells) | FoxP3 protein expression by flow cytometry (naïve CD4^+ T cells) | EC50 at 4 h [1] [nM]
Cc1cc(C)c(C=C2C(=O)Nc3ccccc32)[nH]1 [SU5416, 3-(3,5-dimethyl-1H-pyrrol-2-ylmethylene)-1,3-dihydro-indole-2-one] | upregulated | significantly enhanced | 
Clc1cc2c(cc1Cl)Oc1cc(Cl)c(Cl)cc1O2 [TCDD, 2,3,7,8-tetrachlorodibenzo-p-dioxin] |  |  | 1.89
